# Source: patent publication US20140271573A1, “PHARMACO-CELLULAR THERAPEUTIC METHOD FOR THE TREATMENT OF MUSCULAR DYSTROPHIES” (PONTIFICIA UNIVERSIDAD CATÓLICA DE CHILE, priority 2013, published 2014)
# Entries after “also recorded” stand apart in the source; their conditions may differ.
# Assays:
# Assay type in all cases: in vivo, mouse
# [1] = tested on: TGF-β1 canonical signaling pathway (p-Smad 2); assay: pSmad-2 indirect immunofluorescence in tibialis anterior cryosections of mdx mice; conditions: exercised mdx mice, 1 mg/kg i.p. 3 times per week for 3 months
# Description: FIG. 2. Andrographolide reduced expression and activity of the pro-fibrotic cytokine, TGF-β1, in mdx mice. To augment the extent of muscle fibrosis, 3 months old mdx mice were subjected to an exercise protocol for 3 months. Along this period one group was treated with 1 mg/kg andrographolide or vehicle (i.p. injections 3 time per week, 4 animal per group). A) TGF-β1 mRNA levels, an important pro-fibrotic cytokine, were determined in tibialis anterior muscle from Wild type (WT), Vehicle-Treated mdx and andrographolide-treated mdx mice by RT-qPCR using GAPDH as reference gene. Values correspond to the mean of dCT value±SD of three independent experiments, using four mice for each experimental condition and normalized to WT levels (*, P<0.05 relative to WT mice; #, P<0.05 relative to Vehicle-treated mdx mice). B) Detection of pSmad-2 (an intracellular TGF-β1 mediator) through indirect immunofluorescence analysis in cryosections of tibialis anterior muscle from Vehicle-treated and andrographolide-treated mdx mice. Bar corresponds to 200 μm.
# (§1) Control or mdx (12 weeks old) male mice of C57BL/10 ScSn strain were studied. The animals were kept at room temperature with a […] night-day cycle and fed with pellets and water ad libitum. […]
# mdx mice [2] = assay: Serum creatine kinase (CK) measurement in mdx mice; conditions: exercised mdx mice, 1 mg/kg i.p. 3 times per week for 3 months, vs vehicle
# Description: FIG. 4. Andrographolide reduced skeletal muscle damage in mdx mice. To augment the extent of muscle fibrosis, 3 months old mdx mice were subjected to an exercise protocol for 3 months. Along this period one group was treated with 1 mg/kg andrographolide or vehicle (i.p. injections 3 time per week, 6 animal per group). […] B) Evans blue dye uptake in tibialis anterior muscle fibers from wild-type (WT), Vehicle-treated mdx and andrographolide-treated mdx mice. Nuclei were labeled with Hoechst. Mice were injected i.p. with 1% Evans blue dye 24 hours before muscle fixation. Bar corresponds to 200 μm. […] Values are expressed as mean±SD of three independent experiments, using eight mice for each experimental condition. (*, P<0.05 relative to WT mice; #, P<0.05 relative to Vehicle-treated mdx mice).
# as §1
# Mice were anesthetized by isofluorane gas, and blood was obtained from the periorbital vascular plexus directly into microhematocrit tubes (70 μl, Fisher Scientific). […] Serum CK was measured by enzymatic system (Valtek, Chile) according to the manufacturer instructions) (Osses and Brandan, 2002).
# mdx mice [3] = assay: Contractile properties (isometric force) of isolated tibialis anterior muscle of mdx mice; conditions: isolated tibialis anterior of treated mdx mice, vs vehicle-treated mdx
# Description: FIG. 6. Andrographolide increased skeletal muscle strength and exercise performance in mdx mice. 3 months old Wild Type (WT) and mdx mice were subjected to an exercise protocol for 3 months to augment the extent of muscle fibrosis. Along this period one group was treated with 1 mg/kg andrographolide or vehicle (i.p. injections 3 time per week, 6 animal per group). A) tibialis anterior muscles from wild-type (WT), Vehicle-treated mdx and andrographolide-treated mdx mice were isolated to evaluate isometric specific force (mN/mm2) at different stimulation frequencies (pulses per second, pps). B) Bar graph showing tetanic specific force. Values are represented as percentage of specific isometric force generated by Wild type muscle (*, P<0.05 relative to WT mice; #, P<0.05 relative to Vehicle-treated mdx mice). C) Bar graph showing twitch force (*, P<0.05 relative to WT mice; #, P<0.05 relative to Vehicle-treated mdx mice). D) Mice were subjected to an exercise challenge into the treadmill at 15 meters/min for 5 minutes and the number of stebacks was counted (*, P<0.05 relative to WT mice; #, P<0.05 relative to Vehicle-treated mdx mice).
# Control or mdx (12 weeks old) male mice of C57BL/10 ScSn strain were studied. The animals were kept at room temperature with a […] night-day cycle and fed with pellets and water ad libitum. Experimental exercise was performed for running the mice in a treadmill for three times per week, 30 minutes each time at 12 m/min during 3 or 4 months (De Luca et al., 2005; De Luca et al., 2003). […]
# The isometric force of isolated muscles were measured as described previously (Cabello-Verrugio et al., 2012). Briefly, optimum muscle length (Lo) and stimulation voltage were determined from micromanipulation of muscle length to produce maximum isometric twitch force. Maximum isometric tetanic force (Po) was determined from the plateau of the frequency-force relationship after successive stimulations at 1 to 200 Hz for 450 ms, with 2-minute rests between stimuli. […]
smiles,measurement,setting,value
C=C1CC[C@@H]2[C@](C)(CO)[C@H](O)CC[C@@]2(C)[C@@H]1C/C=C1/C(=O)OC[C@H]1O [andrographolide],number of positive nuclei for phosphorylated smad2 protein,[1],reduced
same,serum CK levels,mdx mice [2],significant reduction; also recorded: decreased
same,generation of isometric force,mdx mice [3]; frequencies between 50 and 100 Hz,significant increase
same,tetanic force,mdx mice [3],significant increase
same,twitch force,mdx mice [3],significant increase
